Legend:
Type in all cases: cell-based
human GCGR = target: T1, human GCGR (Homo sapiens, UniProt P47871); test: cAMP activity assay, cells expressing human GCGR; details: for GCGR/GLP1R ratio: ratio of hGCGR EC50 to hGLP1R EC50, Table 5
T1 construct: expressed in transfected cells
Procedure: (§1) Activity of the incretin peptides or the conjugates at the Glucagon receptor (GCGR) and GLP-1 receptor (GLP1R) may be measured in a cAMP activity assay as follows.
(§2) Peptides are dissolved in 100% DMSO and serially diluted to generate 10 point titrations. The peptide solutions are then transferred into 384-well assay plates (150 nL/well). Assay ready frozen cells expressing human GLP1R or human GCGR are suspended in growth media consisting of DMEM medium (GIBCO), 10% FBS (GIBCO), 1×NEAA(GIBCO), 1×P/S (GIBCO), 10 μg/mL Blasticidin (GIBCO) and 200 μg/mL Hygromycin (GIBCO). […] The cell suspensions (15 μL) are then added to the assay plates containing the peptide solutions (30,000 cells/well for human GCGR; 10,000 cells/well for human GLP1R). The cells are incubated for one hour at room temperature in the dark.
(§3) Production of cAMP may be determined using HitHunter™ cAMPXS kits (DiscoverX) following the manufacturer's protocol. The plates are incubated for overnight at room temperature in the dark. Luminescence may be measured using an EnVision Multilabel plate reader (Perkin Elmer). Native GLP-1 and Glucagon (Bachem) may be used as control peptides. EC50 values may be calculated using uses a 4 parameter logistic fit based on the Levenberg-Marquardt algorithm.

minipig IR = test: Insulin Receptor Phosphorylation (pAkt) Assay, CHO cells overexpressing minipig IR; details: Table 7, read-out: Insulin Receptor pAK Assay EC50 Minipig
human GLP1R = human GLP1R (Homo sapiens, UniProt P43220); test: cAMP activity assay, cells expressing human GLP1R; details: hGLP1R EC50
human GLP1R, sequence (P43220 24-463): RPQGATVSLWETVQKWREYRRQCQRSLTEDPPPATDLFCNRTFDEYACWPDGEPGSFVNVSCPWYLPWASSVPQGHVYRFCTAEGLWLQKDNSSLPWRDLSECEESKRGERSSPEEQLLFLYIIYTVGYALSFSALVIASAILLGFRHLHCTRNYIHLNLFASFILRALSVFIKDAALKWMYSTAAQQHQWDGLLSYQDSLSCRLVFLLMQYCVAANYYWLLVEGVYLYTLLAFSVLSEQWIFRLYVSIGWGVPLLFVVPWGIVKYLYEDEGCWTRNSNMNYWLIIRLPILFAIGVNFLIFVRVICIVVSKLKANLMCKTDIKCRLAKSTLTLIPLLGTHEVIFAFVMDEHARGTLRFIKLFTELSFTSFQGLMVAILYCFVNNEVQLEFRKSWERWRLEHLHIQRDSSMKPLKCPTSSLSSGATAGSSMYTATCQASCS
Procedure: as §1, §2, §3

T1 sequence (P47871 26-477): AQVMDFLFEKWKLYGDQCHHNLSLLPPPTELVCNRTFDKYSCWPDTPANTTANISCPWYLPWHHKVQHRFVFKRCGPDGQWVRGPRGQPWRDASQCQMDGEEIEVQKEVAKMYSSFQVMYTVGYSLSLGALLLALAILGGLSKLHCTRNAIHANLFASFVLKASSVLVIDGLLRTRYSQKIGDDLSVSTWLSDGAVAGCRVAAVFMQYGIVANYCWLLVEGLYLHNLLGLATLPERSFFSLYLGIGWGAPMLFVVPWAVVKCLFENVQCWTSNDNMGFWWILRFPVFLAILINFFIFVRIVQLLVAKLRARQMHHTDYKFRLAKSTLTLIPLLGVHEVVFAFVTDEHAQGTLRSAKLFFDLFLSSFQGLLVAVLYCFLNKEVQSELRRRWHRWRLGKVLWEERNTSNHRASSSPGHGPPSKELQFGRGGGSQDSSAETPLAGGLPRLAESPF

EC50 (minipig IR)	Molecule	GCGR/GLP1R ratio (human GCGR)	EC50 (human GCGR; hGCGR_EC50)	EC50 (human GLP1R)
–	CCCCCCCCCCCCCCCC(=O)N[C@@H](CCC(=O)N[C@@H](CCC(=O)NCCCC[C@H](NC(=O)[C@H](CC(=O)O)NC(=O)[C@H](CO)NC(=O)[C@@H](NC(=O)[C@H](Cc1ccccc1)NC(=O)[C@@H](NC(=O)CNC(=O)[C@H](CCC(N)=O)NC(=O)[C@@H](CO)NC(=O)[C@@H](N)Cc1c[nH]cn1)[C@@H](C)O)[C@@H](C)O)C(=O)N[C@@H](CO)C(=O)N[C@@H](CCCCN)C(=O)N[C@@H](Cc1ccc(O)cc1)C(=O)N[C@@H](CC(C)C)C(=O)N[C@@H](CC(=O)O)C(=O)NC(C)(C)C(=O)N[C@@H](CCCNC(=N)N)C(=O)N[C@@H](C)C(=O)N[C@@H](C)C(=O)N[C@@H](CCC(N)=O)C(=O)N[C@@H](CC(=O)O)C(=O)N[C@@H](Cc1ccccc1)C(=O)N[C@H](C(=O)N[C@@H](CCCCN=[N+]=[N-])C(=O)N[C@@H](Cc1c[nH]c2ccccc12)C(=O)N[C@@H](CC(C)C)C(=O)N[C@@H](CC(C)C)C(=O)N[C@@H](CC(=O)O)C(=O)N[C@H](C(N)=O)[C@@H](C)O)C(C)C)C(=O)O)C(=O)O [PEP7]	0.2	–	–
0.5 nM	Insulin levemir [IL]	–	–	–
–	CCCCCCCCCCCCCCCC(=O)N[C@@H](CCC(=O)N[C@@H](CCC(=O)NCCCC[C@H](NC(=O)[C@H](CC(=O)O)NC(=O)[C@H](CO)NC(=O)[C@@H](NC(=O)[C@H](Cc1ccccc1)NC(=O)[C@@H](NC(=O)CNC(=O)[C@H](CCC(N)=O)NC(=O)[C@@H](CO)NC(=O)[C@@H](N)Cc1c[nH]cn1)[C@@H](C)O)[C@@H](C)O)C(=O)N[C@@H](CO)C(=O)N[C@@H](CCCCN)C(=O)N[C@@H](Cc1ccc(O)cc1)C(=O)N[C@@H](CC(C)C)C(=O)N[C@@H](CC(=O)O)C(=O)N[C@@H](CCC(=O)O)C(=O)N[C@@H](CCCNC(=N)N)C(=O)N[C@@H](C)C(=O)N[C@@H](C)C(=O)N[C@@H](CCC(N)=O)C(=O)N[C@@H](CC(=O)O)C(=O)N[C@@H](Cc1ccccc1)C(=O)N[C@H](C(=O)N[C@@H](CCCCNC(=O)COCCOCCNC(=O)COCCOCCNC(=O)CCCCN=[N+]=[N-])C(=O)N[C@@H](Cc1c[nH]c2ccccc12)C(=O)N[C@@H](CC(C)C)C(=O)N[C@@H](CC(C)C)C(=O)N[C@@H](CC(=O)O)C(=O)N[C@H](C(N)=O)[C@@H](C)O)C(C)C)C(=O)O)C(=O)O [PEP15]	0.7	0.02 nM	0.03 nM

Reference: US20230105982A1, “INSULIN-INCRETIN CONJUGATES” (Merck Sharp & Dohme Corp., priority 2021, published 2023)
